Measurements as given in patent US20220363665A1, “QUINOLINE COMPOUNDS FOR THE TREATMENT OF AUTOIMMUNE DISEASE” (Hoffmann-La Roche Inc., priority 2019, published 2022).

molecular target: T1, human TLR8 (Homo sapiens, UniProt Q9NR97); assay: HEK293-Blue-hTLR-8 cells assay (SEAP reporter, R848 stimulation); format: cell-based; details: HEK293-Blue-hTLR8 cells, R848, 20 hrs
T1 construct: host or cells: HEK293 (HEK-Blue hTLR8)
T1 sequence (Q9NR97 27-1041): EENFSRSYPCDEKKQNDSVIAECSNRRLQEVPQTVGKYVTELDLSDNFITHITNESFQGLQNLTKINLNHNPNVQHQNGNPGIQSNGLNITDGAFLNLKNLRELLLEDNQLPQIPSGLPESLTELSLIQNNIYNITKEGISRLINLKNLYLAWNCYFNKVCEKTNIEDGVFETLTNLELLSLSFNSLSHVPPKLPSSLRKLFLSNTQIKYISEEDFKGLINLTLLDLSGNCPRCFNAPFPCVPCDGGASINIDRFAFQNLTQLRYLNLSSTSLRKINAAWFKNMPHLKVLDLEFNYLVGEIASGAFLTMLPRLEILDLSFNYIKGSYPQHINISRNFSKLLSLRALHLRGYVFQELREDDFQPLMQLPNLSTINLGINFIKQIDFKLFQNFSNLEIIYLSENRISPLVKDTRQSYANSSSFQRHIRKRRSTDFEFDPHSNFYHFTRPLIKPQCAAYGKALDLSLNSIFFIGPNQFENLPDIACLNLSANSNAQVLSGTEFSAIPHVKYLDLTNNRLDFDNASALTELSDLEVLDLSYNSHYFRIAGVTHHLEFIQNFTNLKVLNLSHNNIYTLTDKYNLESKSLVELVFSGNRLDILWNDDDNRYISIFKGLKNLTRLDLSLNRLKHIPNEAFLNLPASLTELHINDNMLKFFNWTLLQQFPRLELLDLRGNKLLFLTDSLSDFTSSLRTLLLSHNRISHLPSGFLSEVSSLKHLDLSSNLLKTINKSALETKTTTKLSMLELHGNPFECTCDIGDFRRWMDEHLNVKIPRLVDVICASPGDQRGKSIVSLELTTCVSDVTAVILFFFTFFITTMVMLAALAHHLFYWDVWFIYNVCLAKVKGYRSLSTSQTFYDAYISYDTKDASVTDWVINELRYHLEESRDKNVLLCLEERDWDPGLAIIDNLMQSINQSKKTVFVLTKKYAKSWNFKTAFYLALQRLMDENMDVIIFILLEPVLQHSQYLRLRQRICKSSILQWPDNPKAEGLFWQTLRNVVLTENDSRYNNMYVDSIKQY
Protocol: The following tests were carried out in order to determine the activity of the compounds of formula (I) in HEK293-Blue-hTLR-7/8/9 cells assay.
HEK293-Blue-hTLR-8 Cells Assay:
A stable HEK293-Blue-hTLR-8 cell line was purchased from InvivoGen (Cat. #: hkb-htlr8, San Diego, Calif., USA). These cells were originally designed for studying the stimulation of human TLR8 by monitoring the activation of NF-κB. A SEAP (secreted embryonic alkaline phosphatase) reporter gene was placed under the control of the IFN-β minimal promoter fused to five NF-κB and AP-1-binding sites. The SEAP was induced by activating NF-κB and AP-1 via stimulating HEK-Blue hTLR8 cells with TLR8 ligands. Therefore the reporter expression was declined by TLR8 antagonist under the stimulation of a ligand, such as R848, for incubation of 20 hrs. The cell culture supernatant SEAP reporter activity was determined using QUANTI-Blue™ kit (Cat #. rep-qbl, Invivogen, San Diego, Calif., USA) at a wavelength of 640 nm, a detection medium that turns purple or blue in the presence of alkaline phosphatase.
HEK293-Blue-hTLR8 cells were incubated at a density of 250,000˜450,000 cells/mL in a volume of 170 μL in a 96-well plate in Dulbecco's Modified Eagle's medium (DMEM) containing 4.5 g/L glucose, 50 U/mL penicillin, […], […], 2 mM L-glutamine, 10% (v/v) heat-inactivated fetal bovine serum with addition of 20 μL test compound in a serial dilution in the presence of final DMSO at 1% and 10 μL of 60 μM R848 in above DMEM, perform incubation under 37° C. in a CO2 incubator for 20 hrs. Then 20 μL of the supernatant from each well was incubated with 180 μL Quanti-blue substrate solution at 37° C. for 2 hrs and the absorbance was read at 620˜655 nm using a spectrophotometer. The signalling pathway that TLR8 activation leads to downstream NF-KB activation has been widely accepted, and therefore similar reporter assay was modified for evaluating TLR8 antagonist.

Structure (SMILES) | IC50
C[C@@H]1CN(c2ccc([N+](=O)[O-])c3ncccc23)C[C@H](C(=O)NC2CCN(C)CC2)O1 [Example 20, (2R,6R)-6-methyl-N-(1-methyl-4-piperidyl)-4-(8-nitro-5-quinolyl)morpholine-2-carboxamide] | < 3 nM
CC(NC(=O)[C@H]1CN(c2ccc(C(F)(F)F)c3ncccc23)C[C@@H](C)O1)C1CN(C)CCO1 (single isomer, unassigned) [Example 35A] | 6 nM
C[C@@H]1CN(c2ccc(C(F)(F)F)c3ncccc23)C[C@H](C(=O)NC2CC3CNCC32)O1 (single isomer, unassigned) [Example 49A] | 22 nM
Cc1ccc(N2C[C@@H](C)C[C@@H](N)C2)c2cccnc12 [Example 15, (3R,5S)-5-methyl-1-(8-methyl-5-quinolyl)piperidin-3-amine] | 15 nM
C[C@@H]1CN(c2ccc(C(F)(F)F)c3ncccc23)C[C@H](C(=O)NC2C3CCCC2CNC3)O1 (stereo partly drawn) [Example 45, (2R,6R)-N-(3-azabicyclo[3.3.1]nonan-9-yl)-6-methyl-4-[8-(trifluoromethyl)-5-quinolyl]morpholine-2-carboxamide] | < 3 nM
CC(NC(=O)[C@H]1CN(c2ccc(C(F)(F)F)c3ncccc23)C[C@@H](C)O1)C1CN(C)CCO1 (single isomer, unassigned) [Example 35B] | < 3 nM
C[C@@H]1CN(c2ccc(C(F)(F)F)c3ncccc23)C[C@H](C(=O)NC2C3CNCC2COC3)O1 (single isomer, unassigned) [Example 46B] | 55 nM
C[C@@H]1CN(c2ccc(C(F)(F)F)c3ncccc23)C[C@H](C(=O)NC2CC3CCC(C2)N3)O1 (single isomer, unassigned) [Example 47A] | < 3 nM
C[C@@H]1CN(c2ccc(C(F)(F)F)c3ncccc23)C[C@H](C(=O)N[C@@H]2CNC[C@@H]2F)O1 (single isomer, unassigned) [Example 2A] | < 3 nM
C[C@@H]1CN(c2ccc(C(F)(F)F)c3ncccc23)C[C@H](C(=O)NC2CNCCOC2)O1 (stereo partly drawn) [Example 14, (2R,6R)-6-methyl-N-(1,4-oxazepan-6-yl)-4-[8-(trifluoromethyl)-5-quinolyl]morpholine-2-carboxamide] | 7 nM
C[C@@H]1CN(c2ccc(Cl)c3ncccc23)C[C@H](C(=O)NCC2CN(C)CCO2)O1 (stereo partly drawn) [Example 26, (2R,6R)-4-(8-chloro-5-quinolyl)-6-methyl-N-[(4-methylmorpholin-2-yl)methyl]morpholine-2-carboxamide] | < 3 nM
C[C@@H]1CN(c2ccc(C(F)(F)F)c3ncccc23)C[C@H](C(=O)NCCN2CCOCC2)O1 [Example 13, (2R,6R)-6-methyl-N-(2-morpholinoethyl)-4-[8-(trifluoromethyl)-5-quinolyl]morpholine-2-carboxamide] | 52 nM
C[C@@H]1CN(c2ccc(C(F)(F)F)c3ncccc23)C[C@H](C(=O)NC2CNCC(F)(F)C2)O1 (stereo partly drawn) [Example 28, (2R,6R)-N-(5,5-difluoro-3-piperidyl)-6-methyl-4-[8-(trifluoromethyl)-5-quinolyl]morpholine-2-carboxamide] | 86 nM
Cc1ccc(N2C[C@@H](C)O[C@@H](C(=O)NC3CCN(C)CC3)C2)c2cccnc12 [Example 16, (2R,6R)-6-methyl-N-(1-methyl-4-piperidyl)-4-(8-methyl-5-quinolyl)morpholine-2-carboxamide] | 8 nM
C[C@@H]1CN(c2ccc(C(F)(F)F)c3ncccc23)C[C@H](C(=O)NC[C@@H]2CC(F)(F)CN2)O1 [Example 30] | 130 nM
C[C@@H]1CN(c2ccc(C(F)(F)F)c3ncccc23)C[C@H](C(=O)NCC2CNCCO2)O1 (stereo partly drawn) [Example 48, (2R,6R)-6-methyl-N-(morpholin-2-ylmethyl)-4-[8-(trifluoromethyl)-5-quinolyl]morpholine-2-carboxamide] | < 3 nM
C[C@@H]1CN(c2ccc(C(F)(F)F)c3ncccc23)C[C@H](C(=O)N2CCC3(CCNC3)C2)O1 (stereo partly drawn) [Example 36] | 25 nM
C[C@@H]1CN(c2ccc(C(F)(F)F)c3ncccc23)C[C@H](C(=O)N[C@H]2CNC[C@H]2F)O1 (single isomer, unassigned) [Example 2B] | 8 nM
C[C@@H]1CN(c2ccc([N+](=O)[O-])c3ncccc23)C[C@H](C(=O)N[C@@H]2CNC[C@@H]2F)O1 [Example 19, cis-(2R,6R)-N-[41-fluoropyrrolidin-3-yl]-6-methyl-4-(8-nitro-5-quinolyl)morpholine-2-carboxamide] | < 3 nM
C[C@@H]1CN(c2ccc(C(F)(F)F)c3ncccc23)C[C@H](C(=O)N2CCC(N)CC2)O1 [Example 12, (4-amino-1-piperidyl)-[(2R,6R)-6-methyl-4-[8-(trifluoromethyl)-5-quinolyl]morpholin-2-yl]methanone] | 5 nM
C[C@@H]1CN(c2ccc(C(F)(F)F)c3ncccc23)C[C@H](C(=O)NC2CC3CNCC32)O1 (single isomer, unassigned) [Example 49C] | 5 nM
C[C@@H]1CN(c2ccc(C(F)(F)F)c3ncccc23)C[C@H](C(=O)NC2CC3CCCC(C2)N3)O1 (single isomer, unassigned) [Example 34B] | 6 nM
C[C@@H]1CN(c2ccc(I)c3ncccc23)C[C@H](C(=O)NCC2CN(C)CCO2)O1 (stereo partly drawn) [Example 39, (2R,6R)-4-(8-iodo-5-quinolyl)-6-methyl-N-[(4-methylmorpholin-2-yl)methyl]morpholine-2-carboxamide] | < 3 nM
C[C@@H]1CN(c2ccc(C(F)(F)F)c3ncccc23)C[C@H](C(=O)NC2C[C@H]3C[C@@H]2CN3)O1 (stereo partly drawn) [Example 44] | 43 nM
C#Cc1ccc(N2C[C@@H](C)O[C@@H](C(=O)NC3CCN(C)CC3)C2)c2cccnc12 [Example 43, (2R,6R)-4-(8-ethynyl-5-quinolyl)-6-methyl-N-(1-methyl-4-piperidyl)morpholine-2-carboxamide] | < 3 nM
C[C@@H]1CN(c2ccc(C(F)(F)F)c3ncccc23)C[C@H](C(=O)NC2CC3CNCC(C3)C2)O1 (stereo partly drawn) [Example 37, (2R,6R)-N-(3-azabicyclo[3.3.1]nonan-7-yl)-6-methyl-4-[8-(trifluoromethyl)-5-quinolyl]morpholine-2-carboxamide] | 6 nM
C[C@@H]1CN(c2ccc(C(F)(F)F)c3ncccc23)C[C@H](C(=O)NCC(C)(C)N)O1 [Example 6, (2R,6R)-N-(2-amino-2-methyl-propyl)-6-methyl-4-[8-(trifluoromethyl)-5-quinolyl]morpholine-2-carboxamide] | 26 nM
C[C@@H]1CN(c2ccc(C(F)(F)F)c3ncccc23)C[C@H](C(=O)NC2CC3CCC(C2)N3)O1 (single isomer, unassigned) [Example 47B] | < 3 nM
C[C@@H]1CN(c2ccc(Cl)c3ncccc23)C[C@H](C(=O)NC2CCCNCC2)O1 (stereo partly drawn) [Example 25, (2R,6R)-N-(azepan-4-yl)-4-(8-chloro-5-quinolyl)-6-methyl-morpholine-2-carboxamide] | < 3 nM
C[C@H]1C[C@@H](N)CN(c2ccc(C(F)(F)F)c3ncccc23)C1 [Example 1, (3R,5S)-5-methyl-1-[8-(trifluoromethyl)-5-quinolyl]piperidin-3-amine] | < 3 nM
